Results published in patent US7414071B2, “Methods of treatment with selective EP4 receptor agonists” (Pfizer Inc., priority 2002, dated 2008).

Legend:
[1] = tested on: New Zealand White male rabbits; assay: In vivo anesthetized rabbit model (hypotensive effect: mean arterial pressure and heart rate)
Method: Methods: New Zealand White male rabbits (3-4 kg) are anesthetized with sodium pentobarbital (30 mg/kg, i.v.) and a surgical plane of anesthesia is maintained by a continuous infusion of sodium pentobarbital (16 mg/kg/hr) via an ear vein catheter. A tracheotomy is performed through a ventral midline cervical incision and the rabbits are ventilated with 100% oxygen using a positive pressure ventilator. Body temperature is maintained at 38.5° C. using a heating pad connected to a YSI temperature controller model 72 (Yellow Springs Instruments, Yellow Springs, […].). Fluid-filled catheters are placed in the right jugular vein (for intravenous drug administration) and in the right carotid artery for arterial pressure monitoring and for blood gas analysis using a model 248 blood gas analyzer (Bayer Diagnostics, Norwood, Mass.). The ventilator is adjusted as needed to maintain blood pH and pCO2 within normal physiological ranges for rabbits. […] Blood is sampled after dosing or during the infusion of the test compound to determine plasma concentrations of the test compounds.
Thus, dosing volumes were 0.2 ml/kg (Group A) subcutaneously or 5 ml/h (Groups B, C, and D) as an intravenous (IV) infusion. The term “mgA” means the number of milligrams adjusted for active compound (e.g. corrected for salt etc.).
Dosing: Four groups (Groups A, B, C, and D) of two rabbits each were dosed as follows.

M. fascicularis primates = assay: In vivo primate model (hypotensive effect: mean arterial pressure and heart rate); conditions: monkeys; for mean arterial pressure (MAP) / heart rate (HR): 0.1 mgA/kg SC bolus, mean of 2; for mean arterial pressure (MAP): baseline 101; for heart rate (HR): baseline 161
[2] = Group D, 1.67 μg/kg/h, 4 hour IV infusion
[3] = Group A, 1 mgA/kg SC, three monkeys
[4] = Group C, 0.1 mgA/kg SC, 2 monkeys

SMILES: O=C([O-])c1ccc(CCCN2C(=O)CC[C@@H]2CC[C@@H](O)Cc2cccc(C(F)(F)F)c2)s1.[Na+] [Compound 3M sodium salt]
- heart rate (HR) ([1]; Group C, 16.7 μg/kg/hr IV infusion for 4 hours, 90 min, mean of 2, baseline 291): 301 beats/minute
- mean arterial pressure (MAP) ([1]; Group C, 16.7 μg/kg/hr IV infusion for 4 hours, 120 min, mean of 2, baseline 95): 85 mm Hg
- heart rate (HR) ([1]; Group C, 16.7 μg/kg/hr IV infusion for 4 hours, 120 min, mean of 2, baseline 291): 304 beats/minute
- mean arterial pressure (MAP) ([1]; Group C, 16.7 μg/kg/hr IV infusion for 4 hours, 150 min, mean of 2, baseline 95): 85 mm Hg
- heart rate (HR) ([1]; Group C, 16.7 μg/kg/hr IV infusion for 4 hours, 150 min, mean of 2, baseline 291): 301 beats/minute
- mean arterial pressure (MAP) ([1]; Group C, 16.7 μg/kg/hr IV infusion for 4 hours, 180 min, mean of 2, baseline 95): 85 mm Hg
- heart rate (HR) ([1]; Group C, 16.7 μg/kg/hr IV infusion for 4 hours, 180 min, mean of 2, baseline 291): 298 beats/minute
- mean arterial pressure (MAP) ([1]; Group C, 16.7 μg/kg/hr IV infusion for 4 hours, 210 min, mean of 2, baseline 95): 89 mm Hg
- heart rate (HR) ([1]; Group C, 16.7 μg/kg/hr IV infusion for 4 hours, 210 min, mean of 2, baseline 291): 307 beats/minute
- mean arterial pressure (MAP) ([1]; Group C, 16.7 μg/kg/hr IV infusion for 4 hours, 240 min, mean of 2, baseline 95): 89 mm Hg
- heart rate (HR) ([1]; Group C, 16.7 μg/kg/hr IV infusion for 4 hours, 240 min, mean of 2, baseline 291): 306 beats/minute
- effect on heart rate [1, 2]: no significant change
- effect on mean arterial pressure [1, 2]: no significant change
- mean arterial pressure (MAP) ([1]; Group D, 1.67 μg/kg/hr IV infusion for 4 hours, 5 min, mean of 2, baseline 89): 85 mm Hg
- heart rate (HR) ([1]; Group D, 1.67 μg/kg/hr IV infusion for 4 hours, 5 min, mean of 2, baseline 260): 258 beats/minute
- mean arterial pressure (MAP) ([1]; Group D, 1.67 μg/kg/hr IV infusion for 4 hours, 10 min, mean of 2, baseline 89): 87 mm Hg
- heart rate (HR) ([1]; Group D, 1.67 μg/kg/hr IV infusion for 4 hours, 10 min, mean of 2, baseline 260): 260 beats/minute
- mean arterial pressure (MAP) ([1]; Group D, 1.67 μg/kg/hr IV infusion for 4 hours, 15 min, mean of 2, baseline 89): 85 mm Hg
- heart rate (HR) ([1]; Group D, 1.67 μg/kg/hr IV infusion for 4 hours, 15 min, mean of 2, baseline 260): 262 beats/minute
- mean arterial pressure (MAP) ([1]; Group D, 1.67 μg/kg/hr IV infusion for 4 hours, 30 min, mean of 2, baseline 89): 85 mm Hg
- heart rate (HR) ([1]; Group D, 1.67 μg/kg/hr IV infusion for 4 hours, 30 min, mean of 2, baseline 260): 262 beats/minute
- mean arterial pressure (MAP) ([1]; Group D, 1.67 μg/kg/hr IV infusion for 4 hours, 60 min, mean of 2, baseline 89): 87 mm Hg
- heart rate (HR) ([1]; Group D, 1.67 μg/kg/hr IV infusion for 4 hours, 60 min, mean of 2, baseline 260): 255 beats/minute
- mean arterial pressure (MAP) ([1]; Group D, 1.67 μg/kg/hr IV infusion for 4 hours, 90 min, mean of 2, baseline 89): 87 mm Hg
- heart rate (HR) ([1]; Group D, 1.67 μg/kg/hr IV infusion for 4 hours, 90 min, mean of 2, baseline 260): 253 beats/minute
- mean arterial pressure (MAP) ([1]; Group D, 1.67 μg/kg/hr IV infusion for 4 hours, 120 min, mean of 2, baseline 89): 85 mm Hg
- heart rate (HR) ([1]; Group D, 1.67 μg/kg/hr IV infusion for 4 hours, 120 min, mean of 2, baseline 260): 246 beats/minute
- mean arterial pressure (MAP) ([1]; Group D, 1.67 μg/kg/hr IV infusion for 4 hours, 150 min, mean of 2, baseline 89): 87 mm Hg
- heart rate (HR) ([1]; Group D, 1.67 μg/kg/hr IV infusion for 4 hours, 150 min, mean of 2, baseline 260): 246 beats/minute
- mean arterial pressure (MAP) ([1]; Group D, 1.67 μg/kg/hr IV infusion for 4 hours, 180 min, mean of 2, baseline 89): 87 mm Hg
- heart rate (HR) ([1]; Group D, 1.67 μg/kg/hr IV infusion for 4 hours, 180 min, mean of 2, baseline 260): 246 beats/minute
- mean arterial pressure (MAP) ([1]; Group D, 1.67 μg/kg/hr IV infusion for 4 hours, 210 min, mean of 2, baseline 89): 85 mm Hg
- heart rate (HR) ([1]; Group D, 1.67 μg/kg/hr IV infusion for 4 hours, 210 min, mean of 2, baseline 260): 247 beats/minute
- mean arterial pressure (MAP) ([1]; Group D, 1.67 μg/kg/hr IV infusion for 4 hours, 240 min, mean of 2, baseline 89): 92 mm Hg
- heart rate (HR) ([1]; Group D, 1.67 μg/kg/hr IV infusion for 4 hours, 240 min, mean of 2, baseline 260): 257 beats/minute
- duration of hypotension (M. fascicularis primates; Group A, 1 mgA/kg SC): sustained over the 4 hours post-dose
- onset of hypotension (M. fascicularis primates; Group A, 1 mgA/kg SC): < 2 min
- effect on heart rate (M. fascicularis primates; [3]): transient increase in heart rate
- effect on mean arterial pressure (M. fascicularis primates; [3]): decrease in mean arterial pressure
- duration of hypotension (M. fascicularis primates; Group C, 0.1 mgA/kg SC): sustained over the 4 hours post-dose
- onset of hypotension (M. fascicularis primates; Group C, 0.1 mgA/kg SC): < 4 min
- mean arterial pressure (MAP) (M. fascicularis primates; Group C, 5 min post-dose): 91 mm Hg
- heart rate (HR) (M. fascicularis primates; Group C, 5 min post-dose): 203 beats/minute
- mean arterial pressure (MAP) (M. fascicularis primates; Group C, 10 min post-dose): 57 mm Hg
- heart rate (HR) (M. fascicularis primates; Group C, 10 min post-dose): 206 beats/minute
- mean arterial pressure (MAP) (M. fascicularis primates; Group C, 15 min post-dose): 51 mm Hg
- heart rate (HR) (M. fascicularis primates; Group C, 15 min post-dose): 187 beats/minute
- mean arterial pressure (MAP) (M. fascicularis primates; Group C, 30 min post-dose): 53 mm Hg
- heart rate (HR) (M. fascicularis primates; Group C, 30 min post-dose): 190 beats/minute
- mean arterial pressure (MAP) (M. fascicularis primates; Group C, 60 min post-dose): 58 mm Hg
- heart rate (HR) (M. fascicularis primates; Group C, 60 min post-dose): 180 beats/minute
- mean arterial pressure (MAP) (M. fascicularis primates; Group C, 90 min post-dose): 58 mm Hg
- heart rate (HR) (M. fascicularis primates; Group C, 90 min post-dose): 180 beats/minute
- mean arterial pressure (MAP) (M. fascicularis primates; Group C, 120 min post-dose): 62 mm Hg
- heart rate (HR) (M. fascicularis primates; Group C, 120 min post-dose): 183 beats/minute
- mean arterial pressure (MAP) (M. fascicularis primates; Group C, 150 min post-dose): 65 mm Hg
- heart rate (HR) (M. fascicularis primates; Group C, 150 min post-dose): 187 beats/minute
- mean arterial pressure (MAP) (M. fascicularis primates; Group C, 180 min post-dose): 66 mm Hg
- heart rate (HR) (M. fascicularis primates; Group C, 180 min post-dose): 187 beats/minute
- mean arterial pressure (MAP) (M. fascicularis primates; Group C, 210 min post-dose): 71 mm Hg
- heart rate (HR) (M. fascicularis primates; Group C, 210 min post-dose): 191 beats/minute
- mean arterial pressure (MAP) (M. fascicularis primates; Group C, 240 min post-dose): 79 mm Hg
- heart rate (HR) (M. fascicularis primates; Group C, 240 min post-dose): 193 beats/minute
- effect on heart rate (M. fascicularis primates; [4]): transient increase in heart rate that returned toward normal but leveled off and remained elevated over the 4 hours post-dose
- effect on mean arterial pressure (M. fascicularis primates; [4]): decrease in mean arterial pressure
